Source: patent US20040014734A1, “Farnesoid X-activated receptor agonists” (priority 2002, published 2004)

molecular target: T1, FXR (Rattus norvegicus, UniProt Q62735); assay: Reporter gene transactivation assay; type: cell-based; conditions: Human embryonic kidney 293 cells transfected with rFXR, hRXRβ, hGrip1 and DR-4 or IR-1 luciferase reporter
T1 construct: expressed in transfected cells; host or cells: Human embryonic kidney 293 cells
Description: Human embryonic kidney 293 cells were seeded into 48-well culture plates at 2×10^4 cells per well in a Dulbecco's modified Eagle's medium (DMEM) supplemented with 10% fetal bovine serum. After 24 hours, cells were transfected by a calcium phosphate coprecipitation method with 250 ng of the pGL3/DR-4-luc reporter gene which consists of three copies of AGGTCAagccAGGTCA (DR-4) or pGL3/IR-1-luc which consists of three copies of GGGTCAcTGACCC (IR-1) fused to nucleotides −56 to +109 of the human c-fos promoter in front of the firefly luciferase gene in the plasmid basic pGL3 (Promega, Madison, Wis.), 40 ng pSG5/hRXRβ, 40 ng pR5/rFXR,10 ng pSG5/hGrip1, 0.4 ng CMV/R-luc (transfection normalization reporter, Promega) and 250 ng carrier DNA per well. […] After another 12-24 hours, cells were washed with PBS and refed with DMEM supplemented with 4% delipidated fetal bovine serum. Chemicals dissolved in ethanol were added in duplicate to the medium so that the final concentration of alcohol was 0.2%. After 24-48 hours, cells were harvested and luciferase activity was measured with a commercial kit (Promega Dual luciferase II) on a Monolight luminometer (Becton Dickenson, Mountain View, Calif.). FXR dimerizes with RXR to form an FXR/RXR heterodimer, which binds to both DR-4 response elements and IR-1 response elements in a ligand-dependent manner and transactivates the reporter gene expression.

T1 sequence (Q62735 whole entry): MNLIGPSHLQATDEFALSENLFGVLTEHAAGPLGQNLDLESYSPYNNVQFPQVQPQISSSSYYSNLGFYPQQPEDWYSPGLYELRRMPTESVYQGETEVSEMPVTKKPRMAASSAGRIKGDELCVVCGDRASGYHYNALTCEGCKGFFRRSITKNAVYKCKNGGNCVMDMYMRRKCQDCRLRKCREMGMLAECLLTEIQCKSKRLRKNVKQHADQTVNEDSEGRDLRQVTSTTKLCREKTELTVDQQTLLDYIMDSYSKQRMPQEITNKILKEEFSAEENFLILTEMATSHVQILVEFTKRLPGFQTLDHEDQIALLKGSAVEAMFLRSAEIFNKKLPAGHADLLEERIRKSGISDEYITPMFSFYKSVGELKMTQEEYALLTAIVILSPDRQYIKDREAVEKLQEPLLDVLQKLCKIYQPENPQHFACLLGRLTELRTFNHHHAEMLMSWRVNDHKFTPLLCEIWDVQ
T1 sequence (P28702 whole entry partner): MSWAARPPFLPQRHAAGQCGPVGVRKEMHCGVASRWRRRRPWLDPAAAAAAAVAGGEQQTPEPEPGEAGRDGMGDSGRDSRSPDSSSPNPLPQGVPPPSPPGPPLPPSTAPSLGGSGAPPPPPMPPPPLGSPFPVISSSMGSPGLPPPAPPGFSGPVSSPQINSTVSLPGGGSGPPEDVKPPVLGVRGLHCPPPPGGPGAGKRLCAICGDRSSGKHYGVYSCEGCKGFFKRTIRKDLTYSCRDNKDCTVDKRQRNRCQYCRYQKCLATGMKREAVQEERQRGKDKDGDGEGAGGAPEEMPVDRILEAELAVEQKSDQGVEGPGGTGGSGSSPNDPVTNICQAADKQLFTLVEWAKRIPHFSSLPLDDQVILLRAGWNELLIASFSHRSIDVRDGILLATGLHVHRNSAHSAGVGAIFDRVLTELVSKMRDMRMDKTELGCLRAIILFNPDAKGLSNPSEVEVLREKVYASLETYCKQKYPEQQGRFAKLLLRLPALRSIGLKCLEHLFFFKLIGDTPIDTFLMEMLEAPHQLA
T1 sequence (Q15596 whole entry partner): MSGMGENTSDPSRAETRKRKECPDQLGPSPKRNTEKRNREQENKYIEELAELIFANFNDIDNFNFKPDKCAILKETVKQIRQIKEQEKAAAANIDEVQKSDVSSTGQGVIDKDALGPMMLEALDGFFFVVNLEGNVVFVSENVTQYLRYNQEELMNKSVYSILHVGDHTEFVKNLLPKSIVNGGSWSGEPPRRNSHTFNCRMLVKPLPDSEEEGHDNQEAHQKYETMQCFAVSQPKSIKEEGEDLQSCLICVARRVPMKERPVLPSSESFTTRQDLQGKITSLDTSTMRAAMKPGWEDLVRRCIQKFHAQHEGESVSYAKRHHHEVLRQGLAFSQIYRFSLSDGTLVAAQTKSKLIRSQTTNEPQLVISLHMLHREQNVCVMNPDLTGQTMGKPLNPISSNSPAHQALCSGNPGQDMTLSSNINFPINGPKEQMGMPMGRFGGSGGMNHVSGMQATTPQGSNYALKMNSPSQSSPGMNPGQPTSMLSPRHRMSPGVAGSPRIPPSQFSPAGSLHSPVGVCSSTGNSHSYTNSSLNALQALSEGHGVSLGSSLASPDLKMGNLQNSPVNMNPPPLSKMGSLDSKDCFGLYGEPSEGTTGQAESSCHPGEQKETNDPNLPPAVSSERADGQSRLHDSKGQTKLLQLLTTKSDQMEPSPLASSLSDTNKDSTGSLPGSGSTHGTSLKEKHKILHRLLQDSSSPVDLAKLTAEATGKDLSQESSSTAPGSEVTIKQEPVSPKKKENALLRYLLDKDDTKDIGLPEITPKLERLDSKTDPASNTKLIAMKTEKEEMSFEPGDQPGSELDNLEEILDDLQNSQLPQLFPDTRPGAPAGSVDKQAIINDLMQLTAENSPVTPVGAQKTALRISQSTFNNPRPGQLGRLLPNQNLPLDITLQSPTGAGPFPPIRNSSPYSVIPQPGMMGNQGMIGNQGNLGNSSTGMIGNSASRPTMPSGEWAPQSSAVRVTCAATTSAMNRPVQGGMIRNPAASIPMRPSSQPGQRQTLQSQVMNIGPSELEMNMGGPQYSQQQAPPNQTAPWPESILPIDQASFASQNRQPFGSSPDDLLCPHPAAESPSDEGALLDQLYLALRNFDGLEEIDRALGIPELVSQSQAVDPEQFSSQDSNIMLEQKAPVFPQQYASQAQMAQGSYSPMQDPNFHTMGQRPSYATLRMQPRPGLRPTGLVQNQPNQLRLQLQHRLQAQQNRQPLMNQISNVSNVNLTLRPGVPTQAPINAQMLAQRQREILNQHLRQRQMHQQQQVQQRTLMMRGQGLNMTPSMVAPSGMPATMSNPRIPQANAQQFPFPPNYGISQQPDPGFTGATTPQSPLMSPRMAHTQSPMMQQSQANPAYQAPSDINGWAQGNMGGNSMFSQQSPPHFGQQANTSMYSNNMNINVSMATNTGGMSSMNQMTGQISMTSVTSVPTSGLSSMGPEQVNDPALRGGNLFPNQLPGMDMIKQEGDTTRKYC

SMILES | agonists of FXF (reporter gene transactivation, luciferase activity)
C[C@H](CCC(=O)NCC(F)(F)F)[C@H]1CC[C@H]2[C@@H]3CC[C@@H]4CCCC[C@]4(C)[C@H]3CC[C@]12C [N-(2,2,2-trifluoroethyl)-5β-cholanoic acid-24-amide] | potent agonists
C[C@H](CCC(=O)NCCCl)[C@H]1CC[C@H]2[C@@H]3CC[C@@H]4CCCC[C@]4(C)[C@H]3CC[C@]12C [N-(2-chloroethyl)-5β-cholanoic acid-24-amide] | potent agonists
C[C@H](CCC(=O)NCC(=O)O)[C@H]1CC[C@H]2[C@@H]3CC[C@@H]4CCCC[C@]4(C)[C@H]3CC[C@]12C [N-carboxymethyl-5β-cholanoic acid-24-amide] | potent agonists
CCOC(=O)CNC(=O)CC[C@@H](C)[C@H]1CC[C@H]2[C@@H]3CC[C@@H]4CCCC[C@]4(C)[C@H]3CC[C@]12C [N-ethoxycarbonylmethyl-5β-cholanoic acid-24-amide] | potent agonists
C[C@H](CCC(=O)NCCS(=O)(=O)O)[C@H]1CC[C@H]2[C@@H]3CC[C@@H]4CCCC[C@]4(C)[C@H]3CC[C@]12C [N-sulfonylethyl-5β-cholanoic acid-24-amide] | potent agonists
CC(CCS(=O)(=O)O)C1CCC2C3CCC4CCCCC4(C)C3CCC12C (centres unmarked) [cholanosulfonic acid, 3-(10,13-Dimethyl-hexadecahydro-cyclopenta[a]phenanthren-17-yl)-butane-1-sulfonic acid] | potent agonists
CC(CCC(=O)O)C1CCC2C3CC=C4C=CCCC4(C)C3CCC12C (centres unmarked) [Δ^3,5-cholanoic acid, 4-(10,13-Dimethyl-2,7,8,9,10,11,12,13,14,15,16,17-dodecahydro-1H-cyclopenta[a]phenanthren-17-yl)-pentanoic acid] | potent agonists

Now from value to compound:

agonists of FXF (reporter gene transactivation, luciferase activity) | SMILES
potent agonists | C[C@H](CCC(=O)N(C)C)[C@H]1CC[C@H]2[C@@H]3CC[C@@H]4CCCC[C@]4(C)[C@H]3CC[C@]12C [N,N-dimethyl-5β-cholanoic acid-24-amide]
potent agonists | C[C@H](CCC(=O)NNC=O)[C@H]1CC[C@H]2[C@@H]3CC[C@@H]4CCCC[C@]4(C)[C@H]3CC[C@]12C [N-formylamino-5β-cholanoic acid-24-amide]
potent agonists | CNC(=O)CC[C@@H](C)[C@H]1CC[C@H]2[C@@H]3CC[C@@H]4CCCC[C@]4(C)[C@H]3CC[C@]12C [N-methyl-5β-cholanoic acid-24-amide]
potent agonists | CON(C)C(=O)CC[C@@H](C)[C@H]1CC[C@H]2[C@@H]3CC[C@@H]4CCCC[C@]4(C)[C@H]3CC[C@]12C [N-methyl-N-methoxy-5β-cholanoic acid-24-amide]
potent agonists | CNN(C)C(=O)CC[C@@H](C)[C@H]1CC[C@H]2[C@@H]3CC[C@@H]4CCCC[C@]4(C)[C@H]3CC[C@]12C [N-methyl-N-methylamino-5β-cholanoic acid-24-amide]
potent agonists | C[C@H](CCC(=O)N(C)CC(=O)O)[C@H]1CC[C@H]2[C@@H]3CC[C@@H]4CCCC[C@]4(C)[C@H]3CC[C@]12C [cholamide, N-methyl-N-carboxymethyl-5β-cholanoic acid-24-amide]

same assay, conditions: relative to GW4064

higher efficacy than GW4064, a known non-steroidal FXR agonist | SMILES
200 times | C[C@H](CCC(=O)N(C)CC(=O)O)[C@H]1CC[C@H]2[C@@H]3CC[C@@H]4CCCC[C@]4(C)[C@H]3CC[C@]12C [cholamide, N-methyl-N-carboxymethyl-5β-cholanoic acid-24-amide]
